Laboratory results as given in patent US9994515B2, “Aryl naphthyl methanone oxime(s) and process for preparation thereof” (Council of Scientific & Industrial Research, priority 2013, dated 2018).
Where a name gives a salt, the structure may show the parent alone. Read-outs that look alike come from different tables or passages of the source.

Legend:
[1] = system: HL60; assay: MTT cytotoxicity assay in HL-60 cells; format: cell-based
[2] = system: K562; assay: MTT cytotoxicity assay in K562 cells; format: cell-based
[3] = system: U937; assay: Cytotoxicity in U937 cells; format: cell-based
[4] = system: Vero; assay: Cytotoxicity in Vero kidney epithelial cells; format: cell-based, monkey; settings: Primates, Vero; Table 2; normal cell line
Method: To consider a molecule as a candidate compound in cancer drug therapy, the test compound must have specific cytotoxicity towards the cancer cells without affecting normal cell growth. Therefore, all active compounds were assessed for toxicity in non-cancer cell-lines: mouse fibroblast cell line (NIH3T3) and monkey kidney epithelial cells (Vero). […] Therefore, based on safety index ([…]), 5d [Centans; based on IUPAC name prefixed with Central Drug Research Institute's signature (Cent)] was selected as a lead compound.

[5] = system: MDA-MB231; assay: MTT assay in MDA-MB-231 breast tumor cells; format: cell-based; settings: Homo sapiens, MDA-MB-231, Table 6, 48 h, 10 point dose response
[6] = system: Kasumi 1; assay: Cytotoxicity in Kasumi 1 cells; format: cell-based
[7] = system: DU-145; assay: MTT assay in DU-145 prostate tumor cells; format: cell-based; settings: Homo sapiens, DU-145, Table 6, 48 h, 10 point dose response
[8] = system: Ishikawa; assay: MTT assay in Ishikawa endometrial adenocarcinoma cells; format: cell-based; settings: Homo sapiens, Ishikawa, Table 6, 48 h, 10 point dose response
[9] = system: MCF-7; assay: MTT assay in MCF-7 breast tumor cells; format: cell-based; settings: Homo sapiens, MCF7, Table 6, 48 h, 10 point dose response
[10] = system: NIH3T3; assay: MTT cytotoxicity assay in NIH3T3 fibroblasts; format: cell-based, mouse
[11] = system: CD133+ DLD1 colon cancer cells; assay: CD133+ colon cancer stem cell population by flow cytometry; format: cell-based; settings: 20 uM, 24 h, vehicle 15.30%
Method: FIG. 9. Centans reduces CD133+ colon cancer stem cells with a higher efficacy than salinomycin. DLD1 colon cancer cells were treated with indicated compounds for 24h following which the CD133+ population was assessed by flow cytometry using CD133 antibody or relevant isotype control antibody (BD biosciences) in a Becton Dickinson FACS Calibur. Numbers in the dot plot represent % CD133+ cells.

[12] = system: PBMCs isolated from healthy individuals; assay: MTT cytotoxicity in PBMCs from healthy controls; settings: 1 μM, 48 h
[13] = system: DLD1; assay: Sulphorhodamine B assay in DLD1 colon cancer cells; format: cell-based; settings: Homo sapiens, DLD-1; SRB assay
[14] = system: HCT116; assay: Sulphorhodamine B assay in HCT116 colon cancer cells; format: cell-based; settings: Homo sapiens, HCT-116; SRB assay
[15] = system: SW620; assay: Sulphorhodamine B assay in SW620 colon cancer cells; format: cell-based; settings: Homo sapiens, SW-620; SRB assay
[16] = system: Colo205; assay: Sulphorhodamine B assay in Colo205 colon cancer cells; format: cell-based; settings: Homo sapiens, COLO 205; SRB assay
[17] = Homo sapiens, HL-60, 48 h, Table 1, MTT assay after 48 h treatment
[18] = Homo sapiens, K562, 48 h, Table 1, MTT assay after 48 h treatment
[19] = Homo sapiens, Kasumi 1, Table 2
[20] = Mus musculus, NIH3T3, 48 h, Table 1, MTT assay after 48 h treatment
[21] = Mus musculus, NIH3T3, Table 2, normal cell line
[22] = Table 1, MTT assay after 48 h treatment, fumarate

SMILES	IC50 [1, 17] [µM]	IC50 ([1]; Homo sapiens, HL-60, Table 2) [µM]	IC50 [2, 18] [µM]	IC50 ([2]; Homo sapiens, K562, Table 2) [µM]	IC50 ([3]; Homo sapiens, U-937, Table 2) [µM]	IC50 [4] [µM]	IC50 [5] [µM]	IC50 [6, 19] [µM]	IC50 [7] [µM]	IC50 [8] [µM]	IC50 [9] [µM]	IC50 [10, 20] [µM]	IC50 [10, 21] [µM]	other results
CSc1ccc(/C(=N/OCCCN(C)C)c2cccc3ccccc23)cc1 [Compound 5m, (4-(methylthio)phenyl)(naphthalen-1-yl)methanone O-3-(dimethylamino)propyl oxime oxalate]	7.78	7.78	4.8	4.8	> 15	> 25	7.2	> 10	9.5	7	8	> 25	> 25	–
CSc1ccc(/C(=N/OCCCN2CCC(C)CC2)c2cccc3ccccc23)cc1 [Compound 7c, (4-(methylthio)phenyl)(naphthalen-1-yl)methanone O-3-(4-methylpiperidin-1-yl)propyl oxime oxalate]	> 50	> 50	5.73	5.73	> 25	> 25	20	19	10	> 50	6.5	21	21	–
CC[C@@H](C(=O)[C@@H](C)[C@@H](O)[C@H](C)[C@@H]1O[C@@H]([C@@H](CC)C(=O)O)CC[C@@H]1C)[C@H]1O[C@]2(C=C[C@@H](O)[C@]3(CC[C@@](C)([C@H]4CC[C@](O)(CC)[C@H](C)O4)O3)O2)[C@H](C)C[C@@H]1C [salinomycin]	–	–	–	–	–	–	–	–	–	–	–	–	–	CD133+ population after treatment (minus isotype control) [11]: 5.42%
CSc1ccc(/C(=N/OCCN2CCCCC2)c2cccc3ccccc23)cc1 [Compound 5a, (4-(methylthio)phenyl)(naphthalen-1-yl)methanone O-2-(piperidin-1-yl)ethyl oxime oxalate]	> 20	> 20	5.8	5.8	> 18	> 25	8.8	27	10	10	13.5	15	15	–
CCN(CC)CCO/N=C(/c1ccc(SC)cc1)c1cccc2ccccc12 [Compound 5j, (4-(methylthio)phenyl)(naphthalen-1-yl)methanone O-2-(diethylamino)ethyl oxime fumarate]	–	–	–	–	–	–	–	–	–	–	–	–	–	IC50 [1, 22]: 10 µM; IC50 ([1]; Table 2, fumarate): 10 µM; IC50 [2, 22]: 8.5 µM; IC50 ([2]; Table 2, fumarate): 8.5 µM; IC50 ([3]; Table 2, fumarate): > 24 µM; IC50 ([6]; Table 2, fumarate): 20 µM; IC50 [10, 22]: 25 µM; IC50 ([10]; Table 2, normal cell line, fumarate): 25 µM
Cc1nc(Nc2ncc(C(=O)Nc3c(C)cccc3Cl)s2)cc(N2CCN(CCO)CC2)n1 [Dasatinib]	–	–	–	–	–	–	–	–	–	–	–	–	–	IC50 ([1]; Homo sapiens, HL-60, 48 h, Table 3, MTT, 48 h, 10 point dose response, read-out: IC 50 HL 60): 6.85 µM; IC50 ([2]; Homo sapiens, K562, 48 h, Table 3, MTT, 48 h, 10 point dose response, read-out: IC 50 K562): 6.8 µM; % cell death ([12]; healthy control sample C1): 2.39%; % cell death ([12]; healthy control sample C2): 12.03%; % cell death ([12]; healthy control sample C3): 18.93%; % cell death, Average ([12]; healthy control, average of C1-C3): 11.12%
O=c1[nH]cc(F)c(=O)[nH]1 [Compound 5-FU, 5-fluoro uracil, reference compound]	–	–	–	–	–	–	–	–	–	–	–	–	–	CD133+ population after treatment (minus isotype control) [11]: no effect; IC50 [13]: 16.4 µM; IC50 [14]: > 50 µM; IC50 [15]: > 50 µM; IC50 [16]: 38.1 µM
